{
  "source": "paper PMC5896574",
  "about": "(ChemMedChem, 2017)",
  "key": {"HIV-1LAI": {"tested_on": "HIV-1LAI", "test": "Antiviral assay using MT-2 cells exposed to HIV-1LAI", "assay_type": "cell-based"}, "HIV-2ROD": {"tested_on": "HIV-2ROD", "test": "Antiviral activity of 3b against HIV-2ROD", "assay_type": "cell-based", "conditions": "read-out: Antiviral activity (EC50)"}, "HIVAO2": {"tested_on": "HIVAO2", "test": "Antiviral activity of 3b against HIVAO2", "assay_type": "cell-based, HIV"}, "HIVDRV^RP20": {"tested_on": "HIVDRV^RP20", "test": "Antiviral activity of 3b against HIVDRV^RP20", "assay_type": "cell-based, HIV", "conditions": "read-out: Antiviral activity (EC50)"}, "HIV-1NL4-3": {"tested_on": "HIV-1NL4-3", "test": "Antiviral p24 assay, MT-4 cells exposed to wild-type HIV-1NL4-3", "assay_type": "cell-based"}, "HIV-1DRV^RP20": {"tested_on": "HIV-1DRV^RP20", "test": "microbe, parasite or virus in culture", "assay_type": "cell-based", "conditions": "for fold change of IC50: HIV-1DRV^RP20 relative to HIV-1NL4-3"}, "HIV-1DRV^RP30": {"tested_on": "HIV-1DRV^RP30", "test": "microbe, parasite or virus in culture", "assay_type": "cell-based", "conditions": "for fold change of IC50: HIV-1DRV^RP30 relative to HIV-1NL4-3"}, "HIV-1DRV^RP40": {"tested_on": "HIV-1DRV^RP40", "test": "microbe, parasite or virus in culture", "assay_type": "cell-based", "conditions": "for fold change of IC50: HIV-1DRV^RP40 relative to HIV-1NL4-3"}, "HIV-1 protease": {"biological_target": "HIV-1 protease (Human immunodeficiency virus type 1 group M subtype B, UniProt P04585)", "test": "HIV-1 protease inhibitory assay", "assay_type": "biochemical"}, "[1]": {"conditions": "read-out: antiviral IC50, MT-2 cells exposed to HIV-1LAI, mean of at least three experiments"}, "[2]": {"conditions": "Human immunodeficiency virus 1, MT4"}, "[3]": {"conditions": "Human immunodeficiency virus 1, MT2, read-out: antiviral IC50"}},
  "note": "Where two headings read alike, the source gives them in different places.",
  "data": [
    {"smiles": "CC(C)CN(CC(O)C(Cc1ccccc1)NC(=O)OC1COC2OCCC12)S(=O)(=O)c1ccc(-c2cnco2)cc1", "note": "[3i, (3R,3aS,6aR)-Hexahydrofuro[2,3-b]furan-3-yl ((2S,3R)-3-hydroxy-4-((N-isobutyl-4-(oxazol-5-yl)phenyl)sulfonamido)-1-phenylbu-tan-2-yl)carbamate]", "values": [
      {"measurement": "IC50", "setting": "HIV-1LAI; [1]", "value": 2.8, "unit": "nM"}
    ]},
    {"smiles": "CC(C)CN(C[C@@H](O)[C@H](Cc1ccccc1)NC(=O)O[C@H]1CO[C@H]2OCC[C@H]21)S(=O)(=O)c1ccc(C(N)=O)cc1", "note": "[3b, (3R,3aS,6aR)-Hexahydrofuro[2,3-b]furan-3-yl ((2S,3R)-4-((4-carba-moyl-N-isobutylphenyl)sulfonamido)-3-hydroxy-1-phenylbutan-2-yl)carbamate]", "values": [
      {"measurement": "EC50", "setting": "HIV-2ROD", "value": 30, "unit": "nM"},
      {"measurement": "EC50", "setting": "HIVAO2", "value": 29, "unit": "nM"},
      {"measurement": "IC50", "setting": "HIV-1LAI; [1]", "value": 45, "unit": "nM"},
      {"measurement": "EC50", "setting": "HIVDRV^RP20", "value": 97, "unit": "nM"}
    ]},
    {"smiles": "CC(C)CN(C[C@@H](O)[C@H](Cc1ccccc1)NC(=O)O[C@H]1CO[C@H]2OCC[C@H]21)S(=O)(=O)c1ccc(C(=O)O)cc1", "note": "[3a, 4-(N-((2R,3S)-3-(((((3R,3aS,6aR)-Hexahydrofuro[2,3-b]furan-3-yl)oxy)carbonyl)amino)-2-hydroxy-4-phenylbutyl)-N-isobutylsul-famoyl)benzoic acid]", "values": [
      {"measurement": "IC50", "setting": "HIV-1LAI; read-out: antiviral IC50, MT-2 cells exposed to HIV-1LAI", "value": "> 1000", "unit": "nM"}
    ]},
    {"smiles": "CC(C)CN(C[C@@H](O)[C@H](Cc1ccccc1)NC(=O)O[C@H]1CO[C@H]2OCC[C@H]21)S(=O)(=O)c1ccc(-c2nc(CO)co2)cc1", "note": "[3h, (3R,3aS,6aR)-Hexahydrofuro[2,3-b]furan-3-yl ((2S,3R)-3-hydroxy-4-((4-(4-(hydroxymethyl)oxazol-2-yl)-N-isobutylphenyl)sulfona-mido)-1-phenylbutan-2-yl)carbamate]", "values": [
      {"measurement": "IC50", "setting": "HIV-1NL4-3; MT-4 cells, 50 TCID50 HIV-1NL4-3, p24 assay", "value": 3, "unit": "nM"},
      {"measurement": "fold change of IC50", "setting": "HIV-1DRV^RP20", "value": 88},
      {"measurement": "IC50", "setting": "HIV-1DRV^RP20; MT-4 cells, 50 TCID50 HIV-1DRV^RP20, p24 assay", "value": 260, "unit": "nM"},
      {"measurement": "fold change of IC50", "setting": "HIV-1DRV^RP30", "value": 99},
      {"measurement": "IC50", "setting": "HIV-1DRV^RP30; MT-4 cells, 50 TCID50 HIV-1DRV^RP30, p24 assay", "value": 290, "unit": "nM"},
      {"measurement": "IC50", "setting": "HIV-1LAI; [1]", "value": 3.9, "unit": "nM"},
      {"measurement": "fold change of IC50", "setting": "HIV-1DRV^RP40", "value": "> 337"},
      {"measurement": "IC50", "setting": "HIV-1DRV^RP40; MT-4 cells, 50 TCID50 HIV-1DRV^RP40, p24 assay", "value": "> 1000", "unit": "nM"}
    ]},
    {"smiles": "COC(=O)c1coc(-c2ccc(S(=O)(=O)N(CC(C)C)C[C@@H](O)[C@H](Cc3ccccc3)NC(=O)O[C@H]3CO[C@H]4OCC[C@H]43)cc2)n1", "note": "[3g, Methyl 2-(4-(N-((2R,3S)-3-(((((3R,3aS,6aR)-hexahydrofuro[2,3-b]furan-3-yl)oxy)carbonyl)amino)-2-hydroxy-4-phenylbutyl)-N-isobutylsulfamoyl)phenyl)oxazole-4-carboxylate]", "values": [
      {"measurement": "Ki", "setting": "HIV-1 protease", "value": 0.0279, "unit": "nM"},
      {"measurement": "IC50", "setting": "HIV-1NL4-3; [2]", "value": 22, "unit": "nM"},
      {"measurement": "fold change of IC50", "setting": "HIV-1DRV^RP20", "value": 15},
      {"measurement": "IC50", "setting": "HIV-1DRV^RP20; [2]", "value": 320, "unit": "nM"},
      {"measurement": "fold change of IC50", "setting": "HIV-1DRV^RP30", "value": 20},
      {"measurement": "IC50", "setting": "HIV-1DRV^RP30; [2]", "value": 430, "unit": "nM"},
      {"measurement": "IC50", "setting": "HIV-1LAI; [3]", "value": 6.2, "unit": "nM"},
      {"measurement": "fold change of IC50", "setting": "HIV-1DRV^RP40", "value": "> 46"},
      {"measurement": "IC50", "setting": "HIV-1DRV^RP40; [2]", "value": "> 1000", "unit": "nM"}
    ]},
    {"smiles": "CC(C)CN(C[C@@H](O)[C@H](Cc1ccccc1)NC(=O)O[C@H]1CO[C@H]2OCC[C@H]21)S(=O)(=O)c1ccc([C@@H](C)O)cc1", "note": "[3e, (3R,3aS,6aR)-Hexahydrofuro[2,3-b]furan-3-yl ((2S,3R)-3-hydroxy-4-((4-((R)-1-hydroxyethyl)-N-isobutylphenyl)sulfonamido)-1-phe-nylbutan-2-yl)carbamate]", "values": [
      {"measurement": "IC50", "setting": "HIV-1LAI; [1]", "value": 4, "unit": "nM"}
    ]},
    {"smiles": "CC(C)CN(C[C@@H](O)[C@H](Cc1ccccc1)NC(=O)O[C@H]1CO[C@H]2OCC[C@H]21)S(=O)(=O)c1ccc(N)cc1", "note": "[DRV, darunavir, reference compound]", "values": [
      {"measurement": "IC50", "setting": "HIV-1NL4-3; [2]", "value": 3.4, "unit": "nM"},
      {"measurement": "IC50", "setting": "HIV-1DRV^RP20; [2]", "value": 43, "unit": "nM"},
      {"measurement": "IC50", "setting": "HIV-1LAI; [3]", "value": 1.6, "unit": "nM"},
      {"measurement": "IC50", "setting": "HIV-1DRV^RP40; [2]", "value": "> 1000", "unit": "nM"}
    ]}
  ]
}
